Test results reported in patent publication US12226380B2, “Method of regulating immunity in the intestines” (Monell Chemical Senses Center, priority 2016, dated 2025).

Columns and labels:
DSS-induced colitis = conditions: DSS-treated mice, 100 mM succinate in drinking water vs plain water; anticipated
Protocol: Mice are treated with DSS to induce intestinal damage. Mice are then provided with a drinking sprout containing 100 mM succinate or plain water. Gut tissue is collected and evaluated for the clinical and histological changes.

[1] = tested on: N. brasiliensis or Helgomosomoides polygyrus; conditions: mice with free access to 100 mM succinate, infected with intestinal parasites, up to two weeks post-infection; anticipated
Protocol: For treatment of parasitic infection, mice are provided with free access to a drinking sprout containing 100 mM succinate (or other SucnR1 agonist) or plain water. Mice are then infected with intestinal parasites, such as N. brasiliensis or Helgomosomoides polygyrus. Mice are examined for the presence of worm (worm burden) in the small intestine, caecum, as well as feces for up to two weeks post-infection.
Similarly, the feces is examined for the presence of parasitic eggs.

SMILES: O=C(O)CCC(=O)O [succinate]
- clinical outcome (clinical and histological changes of gut tissue) (DSS-induced colitis): better clinical outcome
- expelling of helminths (worm burden) [1]: expedited expelling of helminths from the body
